Experimental data reported in article PMC2755957 (The Journal of Biological Chemistry, 2009).
Numbering of substitutions follows the chain as printed.

How the values were obtained:
[1] = molecular target: T1, mouse Δ1–24-L-PGDS (lipocalin type prostaglandin D synthase) (Mus musculus, UniProt O09114, H111A); assay: surface plasmon resonance; type: binding
T1 sequence (O09114 25-189 H111A): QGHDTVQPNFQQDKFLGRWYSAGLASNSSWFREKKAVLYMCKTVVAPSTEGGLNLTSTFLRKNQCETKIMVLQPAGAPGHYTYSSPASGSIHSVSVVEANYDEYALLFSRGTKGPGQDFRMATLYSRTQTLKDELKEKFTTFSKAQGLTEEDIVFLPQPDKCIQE

[2] = molecular target: T2, mouse Δ1–24-L-PGDS (lipocalin type prostaglandin D synthase) (Mus musculus, UniProt O09114, S45A); assay: surface plasmon resonance; type: binding
T2 sequence (O09114 25-189 S45A): T1 sequence (O09114 25-189 H111A) with S21A, A87H

[3] = molecular target: T3, Δ^1–24-L-PGDS + T67A/S81A (Mus musculus, UniProt O09114, S81A/T67A); assay: biochemical
T3 sequence (O09114 1-189 T67A/S81A): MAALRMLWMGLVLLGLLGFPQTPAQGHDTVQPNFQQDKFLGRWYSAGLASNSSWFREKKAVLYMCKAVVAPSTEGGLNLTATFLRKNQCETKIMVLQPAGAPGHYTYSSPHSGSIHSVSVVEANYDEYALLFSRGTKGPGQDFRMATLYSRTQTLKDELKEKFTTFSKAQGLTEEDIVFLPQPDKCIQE

[4] = molecular target: T4, mouse Δ1–24-L-PGDS (lipocalin type prostaglandin D synthase) (Mus musculus, UniProt O09114, S45A/S81A/T67A); assay: surface plasmon resonance; type: binding
T4 sequence (O09114 25-189 S45A/T67A/S81A): T1 sequence (O09114 25-189 H111A) with S21A, T43A, S57A, A87H

[5] = molecular target: T5, mouse Δ1–24-L-PGDS (lipocalin type prostaglandin D synthase) (Mus musculus, UniProt O09114, S81A); assay: surface plasmon resonance; type: binding
T5 sequence (O09114 25-189 S81A): T1 sequence (O09114 25-189 H111A) with S57A, A87H

[6] = molecular target: T6, mouse Δ1–24-L-PGDS (lipocalin type prostaglandin D synthase) (Mus musculus, UniProt O09114, C65A); assay: surface plasmon resonance; type: binding
T6 sequence (O09114 25-189 C65A): T1 sequence (O09114 25-189 H111A) with C41A, A87H

[7] = molecular target: T7, mouse Δ1–24-L-PGDS (lipocalin type prostaglandin D synthase) (Mus musculus, UniProt O09114, H111A/W54A); assay: surface plasmon resonance; type: binding
T7 sequence (O09114 25-189 W54A/H111A): T1 sequence (O09114 25-189 H111A) with W30A

[8] = molecular target: T8, Δ^1–24-L-PGDS + S45A/T67A (Mus musculus, UniProt O09114, S45A/T67A); assay: biochemical
T8 sequence (O09114 1-189 S45A/T67A): T3 sequence (O09114 1-189 T67A/S81A) with S45A, A81S

Δ^1–24-C65A + W54A = molecular target: T9, Δ^1–24-C65A + W54A (Mus musculus, UniProt O09114, C65A/W54A); assay: biochemical
T9 sequence (O09114 1-189 W54A/C65A): T3 sequence (O09114 1-189 T67A/S81A) with W54A, C65A, A67T, A81S

[9] = molecular target: T10, mouse Δ1–24-L-PGDS (lipocalin type prostaglandin D synthase) (Mus musculus, UniProt O09114, T67A); assay: surface plasmon resonance; type: binding
T10 sequence (O09114 25-189 T67A): T1 sequence (O09114 25-189 H111A) with T43A, A87H

Δ^1–24-C65A + H111A = molecular target: T11, Δ^1–24-C65A + H111A (Mus musculus, UniProt O09114, C65A/H111A); assay: biochemical
T11 sequence (O09114 1-189 C65A/H111A): T3 sequence (O09114 1-189 T67A/S81A) with C65A, A67T, A81S, H111A

| Kd [1] [µM] | Kd [2] [µM] | Kd [3] [µM] | Kd [4] [µM] | Kd [5] [µM] | Kd [6] [µM] | Kd [7] [µM] | Kd [8] [µM] | Kd (Δ^1–24-C65A + W54A) [µM] | Kd [9] [µM] | Kd (Δ^1–24-C65A + H111A) [µM] | SMILES |
| --- | --- | --- | --- | --- | --- | --- | --- | --- | --- | --- | --- |
| 20.6 ± 2.3 | 15.2 ± 2.4 | 13.5 ± 2.3 | 12.9 ± 2.4 | 14.6 ± 2.4 | 20.2 ± 2.5 | 20.6 ± 1.4 | 7.2 ± 1.6 | 49.2 ± 3.7 | 12.3 ± 3 | 38.1 ± 2.4 | CCCCC[C@H](O)/C=C/[C@H]1[C@@H]2CO[C@@H](C2)[C@@H]1C/C=C\CCCC(=O)O [U-44069] |
| 20.3 ± 1.3 | 16.2 ± 1.4 | 19.6 ± 2.3 | 22 ± 2 | 17 ± 1.7 | 22.1 ± 1.5 | 48.5 ± 4.4 | 19.1 ± 2.5 | 42.4 ± 3.4 | 26.9 ± 5.3 | 37.2 ± 3.5 | CCCCC[C@H](O)/C=C/[C@@H]1[C@@H](C/C=C\CCCC(=O)O)[C@H]2CO[C@@H]1C2 [U-46619] |
